ChEMBL document CHEMBL5727968, “3-phenyl-pyrazole derivatives as modulators of the 5-HT2A serotonin receptor useful for the treatment of disorders related thereto” (2020)

biological target: 5-hydroxytryptamine receptor 2A (Homo sapiens, UniProt P28223); experiment: [125I]DOI Radioligand Binding Assay: Radioligand binding assays for human 5-HT2A receptor was conducted using the 5-HT2 agonist [125I]DOI as radioligand. To define nonspecific binding, 10 μM DOI was used for all assays. For competitive binding studies, 0.5 nM [125I]DOI was used and compounds were assayed over a range of 0.01 nM to 10 μM. Assays were conducted in a total volume of 200 μl in 96-well Perkin Elmer GF/C filter plates in assay buffer (50 mM Tris-HCl, pH 7.4, 0.5 mM EDTA, 5 mM MgCl2, and 10 μM pargyline). Assay incubations were performed for 60 min at room temperature and were terminated by rapid filtration under vacuum pressure of the reaction mixture over Whatman GF/C glass fiber filters presoaked in 0.5% PEI using a Brandell cell harvestor. Filters were then washing several times with ice-cold wash buffer (50 mM Tris-HCl, pH 7.4). Plates were then dried at room temperature and counted in a Wallac microBeta scintillation counter.
Sequence (P28223 whole entry): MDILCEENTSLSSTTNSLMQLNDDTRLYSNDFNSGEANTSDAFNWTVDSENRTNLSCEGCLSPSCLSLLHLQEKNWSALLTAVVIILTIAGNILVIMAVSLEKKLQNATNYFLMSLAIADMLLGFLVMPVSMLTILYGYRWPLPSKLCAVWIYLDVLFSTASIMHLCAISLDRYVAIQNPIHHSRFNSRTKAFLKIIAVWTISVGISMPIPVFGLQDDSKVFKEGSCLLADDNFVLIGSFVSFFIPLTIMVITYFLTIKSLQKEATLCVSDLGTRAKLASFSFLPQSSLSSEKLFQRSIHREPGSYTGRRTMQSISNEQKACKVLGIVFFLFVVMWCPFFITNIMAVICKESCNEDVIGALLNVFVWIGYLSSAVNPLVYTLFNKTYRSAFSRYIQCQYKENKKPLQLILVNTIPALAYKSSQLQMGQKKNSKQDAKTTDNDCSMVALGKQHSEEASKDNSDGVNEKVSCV

Row | IC50 | Structure (SMILES)
1 | 10.2 nM | Cn1nccc1-c1cc(NC(=O)NCc2ccc(Cl)cc2)ccc1OCCN1CCCC1
2 | 1.1 nM | CCC(C)OC(=O)Nc1ccc(OCCN2CCCC2)c(-c2c(Br)cnn2C)c1 (stereo not drawn)
3 | 13.7 nM | Cn1nccc1-c1cc(NC(=O)Cc2ccc(F)cc2)ccc1OCCN1CCCCC1
